In US12570643B2, “3-aryloxy-3-five-membered heteroaryl propylamine compound, and crystal form and use thereof” (Shanghai Leado Pharmatech Co. Ltd., priority 2019, dated 2026):
Counter-ions that a name gives are not always drawn.

Assays:
[1] = Hygroscopicity by dynamic moisture absorption (DVS); type: physicochemical; details: 25° C./80RH
Description: Hygroscopicity was tested by dynamic moisture absorption (DVS) instrument. […] (Refer to the 2015 edition of the Chinese Pharmacopoeia (Guiding Principles for Drug Hygroscopicity Test)). • (2) Stability study of the crystal form A of the hydrochloride of the compound of formula I-1: […]

[2] = Stability study of crystal form A (HPLC purity, XRPD crystal form); type: physicochemical; details: initial purity 100
Description: About 10 mg of the crystal form A of the hydrochloride of the compound of formula I-1 was weighed and added into an HPLC vial, the bottle was sealed with a parafilm, 10 small holes were pierced in the film, and the vial was placed at 25° C./60% RH or 40° C./75% RH environment for 4 weeks, sampled in the first and fourth weeks respectively. Purity (using HPLC analysis) and crystal form (using X-ray powder diffraction analysis) of the samples were investigated.

HepG2 cells = assay: Hepatocyte toxicity (CCK-8 cytotoxicity test); type: cell-based; details: Homo sapiens, 72 hours, read-out: hepatotoxicity (IC50)
Description: (§1) HepG-2 and SH-SY5Y cells were prepared and placed in 10 cm dish and incubated at 37° C., 5% CO2 in a cell incubator; the cells were digested with trypsinize, resuspended and then counted. Based on a system of 100 μl/well, 8000 cells were transferred to a 96-well plate. The cells were incubated in a 37° C., 5% CO2 cell incubator for 24 hours; a gradient concentration system of compound I-1 (prepared in Example 2) was prepared, 2 times diluted, the system was 100 μl/well. The supernatant in the 96-well plate cell culture system on the first day was removed, and a fresh prepared drug concentration system was added to the corresponding culture plate wells culturing cells (set up duplicate wells). […] After completion of the culture, the supernatant was removed from the cell culture system of the 96-well plate, 100 μl of detection solution (medium containing 10% CCK-8) was add to each well, and incubated in a cell incubator at 37° C. and 5% CO2 for 1 hour, then taken it out and measured the absorbance at 450 nm with a microplate reader. Data were processed, cytotoxicity was calculated, and IC50 was calculated by GraphPad Prism. […]
(§2) A (dosing): absorbance of the well having cells, CCK-8 solution and drug solution
(§3) A (blank): absorbance of the well having medium and CCK-8 solution, without cells.
(§4) A (0 dosing): absorbance of the well having cells and CCK-8 solution, without drug solution […]

[3] = tested on: hot plate induced pain model in rat; assay: Hot plate induced pain model in rat; type: in vivo, Sprague-Dawley rats; details: 30 mg/kg intraperitoneal, hydrochloride used
Description: Male, mature and unmated healthy Sprague-Dawley rats were selected, and the temperature of the cold/hot plate (product model: PE34, US IITC) was adjusted to a constant temperature of 53±0.1° C., and rats with painful response such as foot licking, foot shaking or slight jumping within 5-10 s were screened (abandoned those who evaded and jumped). […] The tested compound was freshly formulated on the day of administration. A 0.9% NaCl normal saline solution was prepared as a vehicle, an appropriate amount of the test compound was added to the required volume of normal saline, and the mixture was fully suspended to prepare the drug at a concentration of 1 mg/ml. […] The latency of thermal pain was measured at 0.5 h, 1 h and 2 h after drug administration. To avoid scalding the animals on the hot plate, the maximum latency was set to 30 s. The analgesic effect of each compound was evaluated using the maximum possible effect (MPE), i.e. MPE %=[(Post drug latency-baseline latency)/(30−baseline latency)]×100. Statistics of MPE % at different time points.

[4] = tested on: formalin pain model in mice; assay: Formalin pain model in mice; type: in vivo, C57BL/6 mice; details: for licking time (s) in phase II (10-60 min): hydrochloride used, mice, blank Vehicle 349.55 ± 43.09
Source text: 150 C57BL/6 mice (male, 9 weeks) were randomly divided into 15 groups with 10 mice for each group, and were used for the analgesic activity test of 3 compounds in the formalin pain model in mice: the compound I-1 group (compound I-1 prepared in Example 2, its hydrochloride was used in the experiment), the S-duloxetine group (its hydrochloride was used in the experiment) and the compound C1 group (compound C1 prepared in Comparative Example 1, its hydrochloride was used in the experiment), respectively. Before the start of the experiment, the mice were allowed to adapt to the experimental environment for 72 hours, during which there was no need to fast for food or water. The tested drugs were administrated by intraperitoneal injection, and the doses were as follows: • The compound I-1 group: blank Vehicle (blank normal saline control), 0.1 mg/kg, 0.5 mg/kg, 1 mg/kg, 5 mg/kg and 10 mg/kg; • The S-duloxetine group: blank Vehicle (blank normal saline control), 1 mg/kg, 5 mg/kg, 10 mg/kg and 20 mg/kg; • The Compound C1 group: blank Vehicle (blank normal saline control), 0.1 mg/kg, 0.5 mg/kg, 1 mg/kg, 5 mg/kg and 10 mg/kg.
After the administration, the mice were placed in a transparent, ventilated plexiglass cylinder, and 1 hour later, 20 μl of 4% formalin solution was injected into the left hind foot plantar of each group of mice with a micro-injector, and foot pain response in mice were recorded in real time with a miniature camera. The length of time of licking the left foot was used as an indicator of pain response, the licking time were observed and recorded during two periods of 0-10 min (phase I) and 10-60 min (phase II) respectively, for statistical analysis, and the half effective dose (ED50) of the 3 compounds were calculated: ED50 refers to the drug dose that reduces the licking time by half compared with the blank control group. The smaller the ED50 value is, the lower the effective analgesic dose of the compound is and the better its analgesic effect is.

[5] = tested on: acetic acid writhing pain model in mice; assay: Acetic acid writhing pain model in mice; type: in vivo, ICR mice; details: acetic acid 1 hour after administration, normal saline group 49 times
Description: ICR mice, male, 22-25 g, were fasted for food 2 h before administration, but can have water. All ICR mice were weighed and randomly grouped with the number of animals>10 per group. […] The mice were administered via intragastric administration according to the weight of mice. 1.5% acetic acid solution (0.1 ml/10 g) was intraperitoneally injected at 1 hour after administration, and the number of times of visceral pain in each group within 30 minutes was observed, the mice were counted once when the abdomen was concave, the trunk and hind legs were extended and the hips were elevated, and the number of times of these phenomena occurred within 30 min was finally counted.

SNL model in rat = assay: SNL model in rat, mechanical hyperalgesia test; type: in vivo, SD rats; details: 10 mg/kg intragastric, 1 hour after administration, hydrochloride used; control group 3.967 ± 0.775
Description: SD rats were taken for surgery, male, SPF grade, mass 150 g-180 g. The surgical procedure was performed aseptically. The animals were anesthetized with sodium pentobarbital (50 mg/kg, intraperitoneal injection). The surgical area of the waist of animals was shaved, and the skin was disinfected three times with iodophor and 70% ethanol. Start the operation after the skin was dry. A longitudinal incision was made in the posterior part of the sacral bone of the animal's waist with a scalpel to expose the left paravertebral muscles, and the muscle tissue was separated with a distractor to expose the vertebra. The left spinal nerves L5 and L6 were separated, ligated with 6-0 silk thread, and the wounds were sutured. After the surgery, the animals were placed on an electric blanket and injected subcutaneously with 5 mL normal saline to prevent dehydration. When the animal was completely awake (free to move), put the animal back into the cage.
After the surgery, the animals were adapted in the experimental environment for 15 minutes/day for 3 days.
After administration, mechanical hyperalgesia test was performed. The rats were placed individually in a plexiglas box with a grid at the bottom of the box to ensure that the feet of the rats can be tested. Rats would adapt for 15 minutes before the test. […] The rapid paw withdrawal of the animal during the test was recorded as a pain response. The paw withdrawal of the animal when the test fiber left the animal's skin was also recorded as a pain response. If the animal moved or walked, it will not be recorded as a pain response, the test should be repeated. […]
Mechanical hyperalgesia was expressed as the paw withdrawal threshold (PWT) in the behavioral test of rats, which was calculated according to the following equation: 50% response threshold (g)=(10(^Xf+kδ))/10,000 • Xf=the final test fiber value used in the test • K=table value • δ=Average difference
Data were collected using Excel software and analyzed using Prism 6.01 (Graph pad software, Inc.) software.

[6] = Neurocytotoxicity (CCK-8 cytotoxicity test); type: cell-based; details: human, SH-SY5Y cells
Description: as §1, §2, §3, §4

## CNCC[C@@H](Oc1cccc2ccoc12)c1cccs1 [Crystal form A of the hydrochloride]
[1]
  weight change (hygroscopicity, DVS): less than 0.2%
[2]; 25° C./60% RH, 1 week
  Purity (area %): 100 area %
[2]; 25° C./60% RH, 4 weeks
  Purity (area %): 100 area %
[2]; 40° C./75% RH, 1 week
  Purity (area %): 100 area %
[2]; 40° C./75% RH, 4 weeks
  Purity (area %): 100 area %

## CNCC[C@H](Oc1cccc2ccccc12)c1cccs1 [S-duloxetine]
HepG2 cells
  IC50: 33.3 µM
[3]; 0.5 h
  MPE %: 5.75 ± 5.74%
[3]; 1 h
  MPE %: 7.44 ± 5.12%
[3]; 2 h
  MPE %: 13.53 ± 4.99%
[4]; 1 mg/kg intraperitoneal
  licking time (s) in phase II (10-60 min): 259.97 ± 64.44 s
[4]; 5 mg/kg intraperitoneal
  licking time (s) in phase II (10-60 min): 230.49 ± 41.31 s
[4]; 10 mg/kg intraperitoneal
  licking time (s) in phase II (10-60 min): 162.83 ± 36.27 s
[4]; 20 mg/kg intraperitoneal
  licking time (s) in phase II (10-60 min): 72.27 ± 17.29 s
[4]; Mus musculus, ip, intraperitoneal, phase II (10-60 min), dose that halves licking time vs blank control, read-out: analgesic potency ED50 in phase II pain
  ED50: 8 mg/kg
[5]; 10 mg/kg intragastric
  number of visceral pains (writhing reactions) within 30 min: 27 times
[5]; 20 mg/kg intragastric
  number of visceral pains (writhing reactions) within 30 min: 21 times
SNL model in rat
  PWT: 6.519 ± 2.226 g
[6]
  IC50 at 72 h: 28.6 µM
